{"source": "paper PMC11584170", "about": "(ACS chemical biology, 2023)", "key": {"[1]": {"target": "T1, ERRγ (Homo sapiens, UniProt P62508)", "T1 sequence (P62508 1-458)": "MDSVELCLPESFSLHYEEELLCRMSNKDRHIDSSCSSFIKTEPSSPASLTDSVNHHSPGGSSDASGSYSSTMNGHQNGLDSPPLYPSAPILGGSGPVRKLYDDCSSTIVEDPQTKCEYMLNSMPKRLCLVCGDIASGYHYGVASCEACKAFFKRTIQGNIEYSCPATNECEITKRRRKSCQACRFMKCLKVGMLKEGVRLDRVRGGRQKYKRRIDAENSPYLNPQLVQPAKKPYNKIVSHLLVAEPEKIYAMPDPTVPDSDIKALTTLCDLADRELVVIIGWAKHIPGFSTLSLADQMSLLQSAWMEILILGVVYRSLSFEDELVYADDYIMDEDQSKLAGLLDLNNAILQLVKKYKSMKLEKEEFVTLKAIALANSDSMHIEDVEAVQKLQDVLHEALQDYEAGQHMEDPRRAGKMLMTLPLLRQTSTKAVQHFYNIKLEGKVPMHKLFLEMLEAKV", "test": "full-length ERR cell-based cotransfection/reporter assay in HEK293 cells", "details": "full-length ERR cotransfection"}, "[2]": {"system": "mERRα fl/fl and mERRα−/− mice", "test": "exercise endurance in muscle-specific ERRα KO mice", "assay_type": "in vivo"}, "[3]": {"system": "C57BL/6J mice", "test": "chronic treatment, skeletal muscle histology and protein/gene expression", "assay_type": "in vivo"}, "[4]": {"test": "tolerability in mice, 10 days dosing", "assay_type": "in vivo"}, "[5]": {"system": "mice", "test": "grip strength test", "assay_type": "in vivo", "details": "sedentary mice, 50 mg/kg, 2 weeks"}, "[6]": {"target": "T2, ERRγ LBD (Homo sapiens, UniProt P62508)", "T2 sequence (P62508 233-457 limits assumed)": "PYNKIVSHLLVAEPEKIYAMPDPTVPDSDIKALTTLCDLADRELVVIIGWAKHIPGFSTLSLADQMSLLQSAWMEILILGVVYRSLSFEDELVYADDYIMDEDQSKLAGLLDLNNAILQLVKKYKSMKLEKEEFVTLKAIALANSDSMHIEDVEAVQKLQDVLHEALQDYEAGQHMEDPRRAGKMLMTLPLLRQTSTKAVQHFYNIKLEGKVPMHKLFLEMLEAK", "test": "differential scanning fluorimetry", "details": "direct binding"}, "[7]": {"system": "C2C12 cells", "test": "MitoTracker Red staining of C2C12 cells", "assay_type": "cell-based, mouse", "details": "proliferating C2C12, 10 μM, 24 h"}, "[8]": {"system": "Gal4-ERR LBD", "test": "Gal4-ERR LBD chimeric cotransfection assay", "assay_type": "cell-based"}, "[9]": {"system": "primary mouse myocytes", "test": "Ddit4 and Slc25a25 expression in primary myocytes", "assay_type": "cell-based"}, "[10]": {"system": "C57BL6/J mice", "test": "exercise until exhaustion on rodent treadmill, WT mice", "assay_type": "in vivo", "details": "sedentary mice, 7 days b.i.d. i.p. 50 mg/kg, run to exhaustion"}, "[11]": {"system": "C57BL/6J male mice", "test": "acute single dose, Ddit4 and Slc25a25 expression in skeletal muscle", "assay_type": "in vivo"}, "[12]": {"system": "mice", "test": "circadian locomotor activity", "assay_type": "in vivo", "details": "drug treatment"}, "[13]": {"details": "model of heart failure ref 38; cited from earlier work"}, "[14]": {"system": "C2C12 cells", "test": "Ddit4 gene expression in C2C12 myoblast cell line", "assay_type": "cell-based, mouse", "details": "C2C12, 10 μM, 1 or 3 h"}, "[15]": {"system": "C2C12 cells", "test": "ERR target gene", "assay_type": "cell-based, mouse", "details": "C2C12, 24 h dose-response"}, "[16]": {"target": "T3, ERRα (Homo sapiens, UniProt P11474)", "T3 sequence (P11474 1-423)": "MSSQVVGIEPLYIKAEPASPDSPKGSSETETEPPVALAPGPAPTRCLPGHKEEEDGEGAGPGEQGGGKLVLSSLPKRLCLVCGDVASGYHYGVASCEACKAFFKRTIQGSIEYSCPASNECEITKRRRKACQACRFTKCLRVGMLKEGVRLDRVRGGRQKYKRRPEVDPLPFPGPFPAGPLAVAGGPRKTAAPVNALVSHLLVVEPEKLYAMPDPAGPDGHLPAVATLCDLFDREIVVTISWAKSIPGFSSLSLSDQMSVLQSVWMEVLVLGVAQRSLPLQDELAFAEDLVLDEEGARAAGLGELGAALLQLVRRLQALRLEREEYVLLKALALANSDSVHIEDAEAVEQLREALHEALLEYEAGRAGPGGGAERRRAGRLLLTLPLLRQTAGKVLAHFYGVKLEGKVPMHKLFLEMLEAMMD", "test": "full-length ERR cell-based cotransfection/reporter assay in HEK293 cells"}, "[17]": {"target": "T4, ERRβ (Homo sapiens, UniProt O95718)", "T4 sequence (O95718 1-433)": "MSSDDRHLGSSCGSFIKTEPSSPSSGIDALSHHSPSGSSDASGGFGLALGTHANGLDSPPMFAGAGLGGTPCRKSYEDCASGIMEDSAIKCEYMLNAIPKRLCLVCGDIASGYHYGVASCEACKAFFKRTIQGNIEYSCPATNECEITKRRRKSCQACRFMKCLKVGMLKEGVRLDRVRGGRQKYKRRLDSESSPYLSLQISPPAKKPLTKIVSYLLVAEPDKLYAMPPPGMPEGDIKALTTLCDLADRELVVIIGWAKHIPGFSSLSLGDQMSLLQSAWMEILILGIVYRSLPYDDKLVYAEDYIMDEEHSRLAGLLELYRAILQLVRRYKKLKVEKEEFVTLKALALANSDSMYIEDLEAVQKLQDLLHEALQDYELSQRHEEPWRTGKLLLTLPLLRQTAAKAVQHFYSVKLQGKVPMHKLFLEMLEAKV", "test": "full-length ERR cell-based cotransfection/reporter assay in HEK293 cells", "details": "read-out: ERRβ EC50"}, "[18]": {"details": "14 days b.i.d., i.p, 50 mg/kg, exercise until exhaustion"}, "[19]": {"details": "quadricep, not induced in mERRα−/−"}, "[20]": {"details": "50 mg/kg b.i.d., gastrocnemius muscle"}}}
{"smiles": "CC/C(=C(\\c1ccc(O)cc1)c1ccc(OCCN(C)C)cc1)c1ccccc1", "note": "[4-hydroXytamoXifen]", "values": [{"measurement": "inhibition of ERRγ constitutive activity", "setting": "[1]", "value": "~75", "unit": "%"}]}
{"smiles": "O=C(N/N=C/c1ccc2ccccc2c1)c1ccc(O)cc1", "note": "[SLU-PP-332, (E)-4-Hydroxy-N′-(naphthalen-2-ylmethylene)benzohydrazide]", "values": [{"measurement": "exercise endurance, mERRα fl/fl mice", "setting": "[2]; [18]", "value": "significantly enhanced exercise endurance"}, {"measurement": "exercise endurance, mERRα−/− mice", "setting": "[2]; [18]", "value": "equivalent to vehicle-treated"}, {"measurement": "upregulation of Ddit4 in quadriceps", "setting": "[2]; mERRα fl/fl vs mERRα−/− mice", "value": "observed only in mERRα^fl/fl"}, {"measurement": "Alas2 expression, mERRα fl/fl mice", "setting": "[2]; [19]", "value": "significantly induced"}, {"measurement": "Per1 expression, mERRα fl/fl mice", "setting": "[2]; [19]", "value": "significantly induced"}, {"measurement": "oxidative muscle phenotype (SDH staining)", "setting": "[3]; 50 mg/kg b.i.d. i.p., 15 days, quadricep", "value": "greater SDH staining"}, {"measurement": "myofiber diameter (laminin staining)", "setting": "[3]; 50 mg/kg b.i.d., 15 days", "value": "smaller in diameter"}, {"measurement": "complex I (NDUFB8) and complex V (ATP5A) expression", "setting": "[3]; [20]", "value": "increase"}, {"measurement": "cytochrome c protein expression", "setting": "[3]; [20]", "value": "increase"}, {"measurement": "Myosin IIA protein (western blot)", "setting": "[3]; quadriceps", "value": "increased expression"}, {"measurement": "expression of Myh6", "setting": "[3]; quadriceps", "value": "increase"}, {"measurement": "oxidative type IIa muscle fibers", "setting": "[3]; quadriceps, 50 mg/kg b.i.d.", "value": "increased"}, {"measurement": "mitochondria content (electron micrographs of quadriceps)", "setting": "[3]; vs vehicle-treated", "value": "increase"}, {"measurement": "complete blood count and electrolyte levels", "setting": "[4]; 50 mg/kg b.i.d., i.p., 10 days", "value": "normal"}, {"measurement": "overt toxicity", "setting": "[4]; 50 mg/kg b.i.d., i.p., 10 days", "value": "no overt toxicity"}, {"measurement": "serum creatine kinase", "setting": "[4]; skeletal muscle toxicity marker", "value": "no significant alterations"}, {"measurement": "grip strength", "setting": "[5]", "value": "increase"}, {"measurement": "thermal stability of purified ERRγ LBD", "setting": "[6]", "value": "dose-dependently increased the thermal stability"}, {"measurement": "mitochondrial biogenesis (MitoTracker Red)", "setting": "[7]", "value": "substantially induced"}, {"measurement": "activity at ERRs", "setting": "[8]", "value": "displayed activity at all ERRs"}, {"measurement": "effect on Ddit4 expression in ERRα or ERRα/γ null myocytes", "setting": "[9]; 1 μM, 2 h", "value": "lost"}, {"measurement": "effect on Ddit4 expression in ERRγ null myocytes", "setting": "[9]; 1 μM, 2 h", "value": "retained"}, {"measurement": "Ddit4 expression, 2 h", "setting": "[9]; primary mouse myocytes, 1 μM, 2 h", "value": "induced"}, {"measurement": "Ddit4 induction, 24 h", "setting": "[9]; primary mouse myocytes, 1 μM, 24 h", "value": "not observed"}, {"measurement": "expression of Slc25a25", "setting": "[9]; primary myocytes, 1 μM, 2 h", "value": "induced"}, {"measurement": "ERRα dependence of Slc25a25 responsiveness", "setting": "[9]; primary myocytes, WT vs KO", "value": "completely ERRα-dependent"}, {"measurement": "increase in running distance vs vehicle", "setting": "[10]", "value": "~45", "unit": "%"}, {"measurement": "increase in running time vs vehicle", "setting": "[10]", "value": "~70", "unit": "%"}, {"measurement": "DDIT4 protein expression level", "setting": "[11]; quadricep muscle, 3 h post 50 mg/kg i.p.", "value": 3.5, "unit": "×"}, {"measurement": "increase in Ddit4 expression", "setting": "[11]; sedentary mice, single dose 50 mg/kg i.p., 1 h", "value": "~3", "unit": "fold"}, {"measurement": "increase in Ddit4 expression, drug plus exercise", "setting": "[11]; single dose 50 mg/kg i.p. and treadmill run, 1 h", "value": "~11", "unit": "fold"}, {"measurement": "increase in Slc25a25 expression", "setting": "[11]; single dose 50 mg/kg i.p., 1 h", "value": 11, "unit": "fold"}, {"measurement": "circadian locomotor activity", "setting": "[12]", "value": "no alterations"}, {"measurement": "improving heart function", "setting": "[13]", "value": "very effective"}, {"measurement": "Ddit4 gene expression", "setting": "[14]", "value": "induced"}, {"measurement": "expression of Pdk4", "setting": "[15]", "value": "clear increase"}]}
{"smiles": "CC(C)c1ccc(/C=N/NC(=O)c2ccc(O)cc2)cc1", "note": "[GSK4716]", "values": [{"measurement": "ERRα agonist activity", "setting": "[16]; ERR cotransfection assay", "value": "very weak agonist activity"}, {"measurement": "EC50", "setting": "[16]; read-out: ERRα EC50, full-length ERR, HEK293", "value": "> 5", "unit": "µM"}, {"measurement": "EC50", "setting": "[17]", "value": "> 5", "unit": "µM"}]}
